Source: the NIST ThermoML archive (doi:10.1016/j.jct.2017.07.011)

Assay: xn = mol fraction of the nth substance listed
Details: 100 kPa, Liquid, Vibrating tube method

CCC(C)(C)O [2-methylbutan-2-ol] + O
mass density [kg/m3]
Details	x1 = 0.00122	x1 = 0.00255	x1 = 0.00412	x1 = 0.00507	x1 = 0.00607	x1 = 0.0079	x1 = 0.00994	x1 = 0.01252	x1 = 0.01488	x1 = 1
273.65 K	999.033	998.16	997.224	996.687	996.151	995.216	994.277	993.23	992.364	826.7
274.15 K	999.058	998.181	997.247	996.703	996.17	995.235	994.284	993.232	992.356	826.3
274.65 K	999.08	998.206	997.266	996.721	996.184	995.25	994.296	993.233	992.353	825.8
275.15 K	999.099	998.222	997.286	996.74	996.2	995.262	994.3	993.231	992.341	825.4
275.65 K	999.114	998.237	997.295	996.749	996.207	995.267	994.301	993.227	992.328	824.9
276.15 K	999.13	998.247	997.305	996.76	996.213	995.266	994.297	993.215	992.313	824.5
276.65 K	999.132	998.253	997.309	996.765	996.216	995.269	994.293	993.203	992.291	824
277.15 K	999.134	998.251	997.307	996.759	996.215	995.258	994.279	993.181	992.265	823.5
277.65 K	999.129	998.246	997.299	996.748	996.2	995.243	994.261	993.157	992.23	823.1
278.15 K	999.126	998.235	997.295	996.741	996.193	995.233	994.246	993.13	992.197	822.6
278.65 K	999.113	998.23	997.279	996.728	996.177	995.217	994.22	993.102	992.159	822.2
279.15 K	999.102	998.216	997.265	996.713	996.158	995.193	994.199	993.072	992.123	821.7
279.65 K	999.075	998.186	997.235	996.681	996.124	995.158	994.162	993.023	992.067	821.3
280.15 K	999.056	998.17	997.213	996.659	996.101	995.132	994.13	992.984	992.025	820.8
280.65 K	999.032	998.146	997.189	996.631	996.074	995.095	994.093	992.943	991.972	820.3
281.15 K	999.006	998.115	997.154	996.599	996.039	995.06	994.049	992.894	991.918	819.9
281.65 K	998.97	998.079	997.123	996.561	996	995.021	994.007	992.846	991.86	819.4
282.15 K	998.939	998.044	997.086	996.522	995.962	994.976	993.958	992.79	991.8	819

CCC(O)CC [3-pentanol] + O
mass density [kg/m3]
Details	x1 = 0.00117	x1 = 0.00216	x1 = 0.00361	x1 = 0.00517	x1 = 0.00616	x1 = 0.00773	x1 = 0.00866	x1 = 1
273.65 K	999.121	998.483	997.636	996.791	996.228	995.539	995.114	835.7
274.15 K	999.145	998.504	997.655	996.809	996.243	995.55	995.121	835.3
274.65 K	999.166	998.525	997.681	996.827	996.257	995.562	995.131	834.9
275.15 K	999.182	998.545	997.694	996.837	996.27	995.568	995.137	834.5
275.65 K	999.2	998.559	997.704	996.842	996.271	995.572	995.134	834.1
276.15 K	999.21	998.568	997.714	996.849	996.277	995.571	995.134	833.7
276.65 K	999.216	998.574	997.718	996.852	996.271	995.565	995.128	833.3
277.15 K	999.214	998.574	997.712	996.843	996.263	995.555	995.116	832.9
277.65 K	999.21	998.562	997.704	996.832	996.251	995.537	995.092	832.5
278.15 K	999.206	998.556	997.698	996.822	996.238	995.523	995.08	832.1
278.65 K	999.194	998.549	997.686	996.805	996.219	995.503	995.05	831.7
279.15 K	999.182	998.533	997.668	996.789	996.197	995.475	995.023	831.3
279.65 K	999.159	998.5	997.635	996.752	996.159	995.434	994.98	830.9
280.15 K	999.14	998.48	997.609	996.729	996.134	995.406	994.948	830.5
280.65 K	999.119	998.457	997.582	996.698	996.103	995.368	994.912	830.1
281.15 K	999.084	998.424	997.551	996.663	996.061	995.327	994.867	829.7
281.65 K	999.053	998.388	997.515	996.619	996.024	995.286	994.819	829.3
282.15 K	999.017	998.353	997.476	996.581	995.981	995.24	994.77	828.9
